Measured values reported in patent publication US9657057B2, “Dipeptide and tripeptide epoxy ketone protease inhibitors” (Onyx Therapeutics, Inc., priority 2013, dated 2017).
Values after ≈ are worked out from the molar mass of the structure shown. Like-named read-outs stand apart in the source and are kept apart here.

Legend:
Solubility pH 7 = format: physicochemical; details: pH 7, aqueous buffer
LMP2 = target: T1, LMP2 (Homo sapiens, UniProt P28065+P40306); test: ProCISE proteasome subunit assay, LMP2; format: biochemical
T1 construct: endogenous in cells; host or cells: MOLT-4
Procedure: (§1) This assay was used to assess the inhibitory activity against each of LMP2, LMP7, MECL1, β1, β2, and β5. Briefly, test compounds were serially diluted in DMSO at 100× concentration, then diluted to 10× in aqueous hypotonic lysis buffer. Lysate from the human acute lymphoblastic leukemia cell line, MOLT-4, was treated for 1 hour at 25° C. with compound at a final 1× concentration. […] Following this, lysate was denatured in guanidine hydrochloride, and subunits bound to probe were isolated with streptavidin-conjugated sepharose beads. Individual subunits were probed with subunit-specific primary antibodies, followed by HRP-conjugated secondary antibodies. A chemiluminescent substrate was used to generate signal associated with HRP binding, which was detected on a plate reader. Luminescent signal was normalized to protein content, then, percent activity calculated relative to DMSO-treated controls to generate IC50 curves.

LMP7 = target: T2, LMP7 (Homo sapiens, UniProt P20618+P28062); test: ProCISE proteasome subunit assay, LMP7; format: biochemical; details: MOLT4 lysate Hu 1 h
T2 construct: endogenous in cells; host or cells: MOLT-4
Procedure, shortened: (§2)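 MOLT-4 cell lysate was incubated with compound for 1 h at 25° C, then a subunit-binding probe was applied; probe-bound subunits were pulled down on streptavidin beads after guanidine denaturation and detected with subunit-specific antibodies by HRP chemiluminescence. Signal was normalized to protein and expressed as percent of DMSO control to fit IC50.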

β5 = target: T3, β5 (Homo sapiens, UniProt P20618+P28074); test: ProCISE proteasome subunit assay, β5; format: biochemical; details: MOLT4 lysate Hu 1 h
T3 construct: endogenous in cells; host or cells: MOLT-4
Procedure, shortened: as §2

[1] = target: c20S (constitutive 20S proteasome) (Homo sapiens, UniProt P20618+P28074); test: 20S proteasome assay, chymotrypsin-like activity (LLVY), c20S; format: biochemical; details: LLVY c20S Hu 1 h CONT: IC50 (nM), succinyl-Leu-Leu-Val-Tyr-AMC
Description: (§3) Assay buffer consisted of TE buffer [20 mmol/L Tris (pH 8.0), 0.5 mmol/L EDTA] with (20S) or without (cell lysate) 0.03% SDS. Reactions were initiated by enzyme or lysate addition and monitored for AMC product formation at 27jC with a plate-based spectofluorometer (Tecan).

[2] = target: i20S (20S immunoproteasome) (Homo sapiens, UniProt P20618+P28062); test: 20S proteasome assay, chymotrypsin-like activity (LLVY), i20S; format: biochemical; details: LLVY i20S Hu 1 h CONT: IC50 (nM), succinyl-Leu-Leu-Val-Tyr-AMC
Description: as §3

β1 = β1 (Homo sapiens, UniProt P28072+Q99436); test: ProCISE proteasome subunit assay, β1; format: biochemical; details: MOLT-4 lysate, 1 hour at 25° C.
Procedure: as §1

β2 = β2 (Homo sapiens, UniProt P49720+Q99436); test: ProCISE proteasome subunit assay, β2; format: biochemical; details: MOLT-4 lysate, 1 hour at 25° C.
Procedure: as §1

MECL1 = MECL1 (Homo sapiens, UniProt P40306+P49720); test: ProCISE proteasome subunit assay, MECL1; format: biochemical; details: MOLT-4 lysate, 1 hour at 25° C.
Procedure: as §1

[3] = ProCISE LMP2 MOLT4 lysate Hu 1 h CONT: IC50 (nM), MOLT4 lysate Hu 1 h

| Structure (SMILES) | solubility (Solubility pH 7) [µg/mL] | IC50 (LMP2; MOLT4 lysate Hu 1 h) [nM] | IC50 (LMP7) [µM] | IC50 (β5) [µM] | further results |
| --- | --- | --- | --- | --- | --- |
| COc1ccc(C[C@H](NC(=O)[C@@H](C)NC(=O)c2ncc[nH]2)C(=O)N[C@@H](CC2CCCC2)C(=O)[C@@]2(C)CO2)cc1 [Compound C-2034, N—((R)-1-(((S)-1-(((S)-3-cyclopentyl-1-((R)-2-methyloxiran-2-yl)-1-oxopropan-2-yl)amino)-3-(4-methoxyphenyl)-1-oxopropan-2-yl)amino)-1-oxopropan-2-yl)-1H-imidazole-2-carboxamide] | 55.5 (≈ 103 µM) | 471 | 19.7 | > 250 | IC50 [1]: 64400 nM; IC50 [2]: 19500 nM |
| COc1ccc(C[C@H](NC(=O)c2ccnc(N3CCOCC3)n2)C(=O)N[C@@H](Cc2ccccc2)C(=O)[C@@]2(C)CO2)cc1 [Compound C-3001] | – | 526 | 4.77 | 5.59 | – |
| COc1ccc(C[C@H](NC(=O)[C@@](C)(O)C(F)(F)F)C(=O)N[C@@H](Cc2ccccc2)C(=O)[C@@]2(C)CO2)cc1 [Compound C-3007, (R)-3,3,3-Trifluoro-2-hydroxy-N—((S)-3-(4-methoxyphenyl)-1-(((S)-1-((R)-2-methyloxiran-2-yl)-1-oxo-3-phenylpropan-2-yl)amino)-1-oxopropan-2-yl)-2-methylpropanamide] | 86.7 (≈ 166 µM) | 274 | 3.46 | 9.84 | – |
| COc1ccc(C[C@H](NC(=O)c2cccc(=O)[nH]2)C(=O)N[C@@H](Cc2ccccc2)C(=O)[C@@]2(C)CO2)cc1 [Compound C-3008, N—((S)-3-(4-Methoxyphenyl)-1-(((S)-1-((R)-2-methyloxiran-2-yl)-1-oxo-3-phenylpropan-2-yl)amino)-1-oxopropan-2-yl)-6-oxo-1,6-dihydropyridine-2-carboxamide] | – | – | – | – | IC50 (LMP2; [3]): 109 nM; IC50 (LMP2; ProCISE, MOLT-4 lysate, 1 hour at 25° C., read-out: LMP2): 109 nM; IC50 (β1): 99.2 µM; IC50 (β2): > 250 µM; IC50 (MECL1): > 250 µM |
| COc1ccc(C[C@H](NC(=O)[C@H]2CCCC(=O)N2)C(=O)N[C@@H](Cc2ccccc2)C(=O)[C@@]2(C)CO2)cc1 [Compound C-3009, (R)—N—((S)-3-(4-Methoxyphenyl)-1-(((S)-1-((R)-2-methyloxiran-2-yl)-1-oxo-3-phenylpropan-2-yl)amino)-1-oxopropan-2-yl)-6-oxopiperidine-2-carboxamide] | – | 517 | 4.57 | 8.29 | IC50 [1]: 87800 nM; IC50 [2]: 9890 nM |
| COc1ccc(C[C@H](NC(=O)c2cccc(=O)[nH]2)C(=O)N[C@@H](CC2=CCCC2)C(=O)[C@@]2(C)CO2)cc1 [Compound C-3015, N—((S)-1-(((S)-3-(Cyclopent-1-en-1-yl)-1-((R)-2-methyloxiran-2-yl)-1-oxopropan-2-yl)amino)-3-(4-methoxyphenyl)-1-oxopropan-2-yl)-6-oxo-1,6-dihydropyridine-2-carboxamide] | 143 (≈ 291 µM) | 37.6 | – | – | – |
| C[C@H](NC(=O)c1cccc(=O)[nH]1)C(=O)N[C@@H](Cc1ccccc1)C(=O)[C@@]1(C)CO1 [Compound C-3016, N—((S)-1-(((S)-1-((R)-2-Methyloxiran-2-yl)-1-oxo-3-phenylpropan-2-yl)amino)-1-oxopropan-2-yl)-6-oxo-1,6-dihydropyridine-2-carboxamide] | 7520 (≈ 18900 µM) | 55 | – | – | – |
| C[C@]1(C(=O)[C@H](Cc2ccccc2)NC(=O)[C@H](CO)NC(=O)c2cccc(=O)[nH]2)CO1 [Compound C-3017, N—((S)-3-Hydroxy-1-(((S)-1-((R)-2-methyloxiran-2-yl)-1-oxo-3-phenylpropan-2-yl)amino)-1-oxopropan-2-yl)-6-oxo-1,6-dihydropyridine-2-carboxamide] | 6640 (≈ 16100 µM) | – | – | – | IC50 (LMP2; [3]): 33 nM |
| C[C@H](NC(=O)c1cccc(=O)[nH]1)C(=O)N[C@@H](CC1CCCC1)C(=O)[C@@]1(C)CO1 [Compound C-3018, N—((S)-1-(((S)-3-Cyclopentyl-1-((R)-2-methyloxiran-2-yl)-1-oxopropan-2-yl)amino)-1-oxopropan-2-yl)-6-oxo-1,6-dihydropyridine-2-carboxamide] | 516 (≈ 1320 µM) | 24.9 | – | – | – |
| C[C@]1(C(=O)[C@H](CC2CCCC2)NC(=O)[C@H](CO)NC(=O)c2cccc(=O)[nH]2)CO1 [Compound C-3019, N—((S)-1-(((S)-3-Cyclopentyl-1-((R)-2-methyloxiran-2-yl)-1-oxopropan-2-yl)amino)-3-hydroxy-1-oxopropan-2-yl)-6-oxo-1,6-dihydropyridine-2-carboxamide] | 639 (≈ 1580 µM) | 16.8 | – | – | – |
